Values joined by “and” are separate entries in the source; they are usually repeats but may differ in a detail not shown here. Equal values may be shown once.
Tested on: HIV transcripts (TAR, LLTR, Pol, PolyA, TatRev)
Experiment: Cell-associated HIV transcripts (RT-ddPCR) 6 days after anti-CD3/CD28 activation of PBMCs from ART-suppressed PWH
Assay type: cell-based
Conditions: for LLTR HIV transcripts (DMSO αCD3/28 = 100): 6 days after αCD3/28 activation, each column one participant; for Pol / PolyA / TAR / TatRev: DMSO αCD3/28 = 100, Fig 4A; for LLTR/TAR / PolyA/LLTR / TatRev/PolyA: DMSO+CD3/28 = 1, Fig 4B, C and D
Description: Next, we evaluated the ability of the candidate LPAs to sustain the inhibitory effects during a prolonged ex vivo culture. To this end, PBMCs were cultured in the presence of individual drugs in DMSO or in DMSO alone as control, activated (anti-CD3/CD28), and harvested after 6 days. […] However, we decided to test the drug on day 6 because extra cells were available from some study participants.
Each drug was tested in PBMCs from at least 6 ART-suppressed study participants (except for KRIBB11, n = 5). PBMCs were aliquoted into wells at 6 × 10^6 cells/well. After activation, the cells were cultured with antiretrovirals in the presence of individual drugs in DMSO or DMSO alone as control. All conditions were tested in the presence of CD3/28 T cell–activating beads, except for the unactivated DMSO condition. After 6 days, total cellular RNA was extracted, and the progression through different stages of HIV transcription was quantified by measuring the levels of initiated (TAR), 5′ elongated (LLTR), midtranscribed/unspliced (Pol), completed (PolyA), and multiply spliced (TatRev) HIV transcripts. (A) The levels of all HIV transcripts were normalized to 1 μg of total cellular RNA and expressed as a percentage of the activated DMSO control (% of activated DMSO). Medians are shown as well as the individual values per study participant in different colors. (B–D) The effect of each drug on HIV transcriptional progression after activation was analyzed by the ratio of one HIV transcript to another. Ratios are independent of HIV infection frequency or normalization to cell numbers. Shown are the proportion of (B) all HIV transcripts that are elongated (LLTR/TAR), (C) elongated HIV transcripts that are completed (PolyA/LLTR), and (D) completed transcripts that are multiply spliced (TatRev/PolyA). Medians and IQR are presented, along with the individual values per study participant in different colors. P values were calculated using Wilcoxon’s signed-rank test: *P < 0.05.
PBMCs were isolated from fresh venous blood from 16 ART-suppressed HIV-infected study participants using Ficoll density gradient centrifugation. The cells were seeded at 6 × 10^6 cells/well and cultured with antiretrovirals (nevirapine and indinavir) to prevent new infection. On the next day, PBMCs were activated with anti-CD3/CD28–coated beads (Invitrogen) in the presence of 20 U/mL IL-2 and individual drugs in DMSO or DMSO alone as a control. Since we were limited in the PBMC yield per study participant, different study participants were used for different experiments (such as the initial screen, dose response, different time points, and studies in activated vs. unstimulated cells). In addition, the yields of PBMCs were sometimes insufficient to test all drugs for a given question or experiment.
For quantification of cell-associated HIV transcripts, PBMCs were harvested either after 24 hours or after 6 days. The cell viabilities were measured by trypan blue staining; then the cells were pelleted by centrifuging at 300g for 6 minutes and stored at –80°C. For quantification of virion-associated HIV RNA, cell culture supernatant was collected from 6 × 10^6 PBMCs that were treated and activated for 6 days as described above. Residual cells and cellular debris were subsequently removed from the supernatant by differential centrifugation (300g for 6 minutes, then 20,000g for 10 minutes), and the supernatant was stored at –80°C.
Total cellular DNA and RNA were extracted in parallel using Trireagent (Molecular Research Center) according to the manufacturer’s instructions, except for study participants 2147 and 2461 (Figure 4), for whom DNA and RNA were extracted using the QIAGEN AllPrep DNA/RNA/miRNA Universal Kit with on-column DNase I treatment of the RNA and the manufacturer’s modification to enhance recovery of short transcripts.

CO[C@H]([C@@H](C)[C@H]1O[C@]1(C)C[C@H](C)/C=C/C=C(\C)[C@H]1O[C@@H](CC(=O)O)CC[C@@H]1C)[C@@H](C)O [herboxidiene]
LLTR HIV transcripts (DMSO αCD3/28 = 100) (5nM): 64.2 and 58.48 and 54.61 and 276.32 and 371.71 and 49.79 and 55 and 16.86
Pol (participant 150b): 43.29
PolyA (participant 150b): 23.53
TAR (participant 150b): 92.09
TatRev (participant 150b): 2.69
LLTR/TAR (participant 150b): 0.5407
PolyA/LLTR (participant 150b): 0.4726
TatRev/PolyA (participant 150b): 0.11
Pol (participant 1379): 47.94
PolyA (participant 1379): 28.08
TAR (participant 1379): 40.01
TatRev (participant 1379): 171.43
LLTR/TAR (participant 1379): 1.462
PolyA/LLTR (participant 1379): 0.4801
TatRev/PolyA (participant 1379): 6.105
Pol (participant 2027): 133.33
PolyA (participant 2027): 36.92
TAR (participant 2027): 82.42
TatRev (participant 2027): 0
LLTR/TAR (participant 2027): 0.6673
PolyA/LLTR (participant 2027): 0.6713
Pol (participant 2147a): 105.88
PolyA (participant 2147a): 21.76
TAR (participant 2147a): 362.23
TatRev (participant 2147a): 28.42
LLTR/TAR (participant 2147a): 0.1772
PolyA/LLTR (participant 2147a): 0.339
TatRev/PolyA (participant 2147a): 0.3013
Pol (participant 2161): 169.45
PolyA (participant 2161): 268.67
TAR (participant 2161): 215.96
TatRev (participant 2161): 176.87
LLTR/TAR (participant 2161): 1.7212
PolyA/LLTR (participant 2161): 0.72
TatRev/PolyA (participant 2161): 0.6583
Pol (participant 2256): 18.46
PolyA (participant 2256): 16.27
TAR (participant 2256): 31.94
TatRev (participant 2256): 1.4
LLTR/TAR (participant 2256): 0.5278
PolyA/LLTR (participant 2256): 0.9648
PolyA (participant 2461): 1692.31
TAR (participant 2461): 52.19
LLTR/TAR (participant 2461): 5.294
PolyA/LLTR (participant 2461): 6.125
LLTR/TAR (participant 2747): 0
Pol (participant 5557): 23.16
PolyA (participant 5557): 23.33
TAR (participant 5557): 83.93
TatRev (participant 5557): 0
LLTR/TAR (participant 5557): 0.6507
PolyA/LLTR (participant 5557): 0.4272

C=CCNC1=C2C[C@@H](C)C[C@H](OC)[C@H](O)[C@@H](C)/C=C(\C)[C@H](OC(N)=O)[C@@H](OC)/C=C\C=C(/C)C(=O)NC(=CC1=O)C2=O [tanespimycin]
LLTR/TAR (participant 150b): 1.555
PolyA/LLTR (participant 150b): 0.0721
TatRev/PolyA (participant 150b): 1.52
LLTR/TAR (participant 1379): 1.931
PolyA/LLTR (participant 1379): 0
LLTR/TAR (participant 1713): 0.63
PolyA/LLTR (participant 1713): 0.35
LLTR/TAR (participant 2147b): 1.469
PolyA/LLTR (participant 2147b): 0
LLTR/TAR (participant 2256): 1.634
PolyA/LLTR (participant 2256): 0.2174
TatRev/PolyA (participant 2256): 3.43
LLTR/TAR (participant 2750): 1.458
PolyA/LLTR (participant 2750): 1.811
TatRev/PolyA (participant 2750): 0
LLTR/TAR (participant 5557): 1.09
PolyA/LLTR (participant 5557): 0.1459
TatRev/PolyA (participant 5557): 0

CNc1ccc([N+](=O)[O-])c(Nc2ccc3[nH]ncc3c2)n1 [KRIBB11]
LLTR HIV transcripts (DMSO αCD3/28 = 100) (2.5μM): 71.6 and 44.44 and 38.82 and 82.14 and 98.47
Pol (participant 2027): 73.68
PolyA (participant 2027): 106.67
TAR (participant 2027): 139.39
TatRev (participant 2027): 11.11
LLTR/TAR (participant 2027): 0.5893
PolyA/LLTR (participant 2027): 1.299
TatRev/PolyA (participant 2027): 0.1042
Pol (participant 2147a): 33.33
PolyA (participant 2147a): 22.8
TAR (participant 2147a): 563.24
TatRev (participant 2147a): 46.99
LLTR/TAR (participant 2147a): 0.1271
PolyA/LLTR (participant 2147a): 0.3184
TatRev/PolyA (participant 2147a): 1.2464
Pol (participant 2256): 169.23
PolyA (participant 2256): 89.76
TAR (participant 2256): 111.27
TatRev (participant 2256): 84.19
LLTR/TAR (participant 2256): 0.8849
PolyA/LLTR (participant 2256): 0.9116
TatRev/PolyA (participant 2256): 1.489
PolyA (participant 2461): 176.92
TAR (participant 2461): 67.9
LLTR/TAR (participant 2461): 0.5717
PolyA/LLTR (participant 2461): 4.558
Pol (participant 2747): 8.97
PolyA (participant 2747): 19.67
TAR (participant 2747): 56.38
TatRev (participant 2747): 30

CC(C)[C@]12O[C@H]1[C@@H]1O[C@]13[C@]1(O[C@H]1C[C@H]1C4=C(CC[C@@]13C)C(=O)OC4)[C@@H]2O [triptolide]
LLTR/TAR (participant 150b): 0.3514
LLTR/TAR (participant 2147b): 1.135
LLTR/TAR (participant 2750): 14.8232

Source: PMC11466185, “Mechanisms and efficacy of small molecule latency-promoting agents to inhibit HIV reactivation ex vivo” (JCI Insight, 2024)
